# Assay results as given in patent US20100233737A1, “MARKER SPECIFIC TO AN OXIDATIVE DEGRADATION OF TISSUES CONTAINING TYPE III COLLAGEN, MEANS AND METHODS AND KITS FOR THE DIAGNOSIS, MONITORING OR PROGNOSIS OF PATHOLOGIES TARGETED BY THIS MARKER” (priority 2006, published 2010).
# No end group written: not given here.
# System: antiserum anti-IIINys (polyclonal, directed against SEQ ID No. 2)
# Experiment: Competitive ELISA, specificity of the antiserum anti IIINys vis-à-vis different peptides
# Assay type: binding, rabbit
# Conditions: biotinylated IIINys coated on plate, competitor peptide in solution
# Method: FIG. 4 illustrates the specificity of the polyclonal antibodies prepared vis-à-vis the IIINys, with respect to other synthetic peptides. B/B0 represents the ratio between the quantity of anti-IIINys antibodies fixed to the antigen fixed (“coated”) onto the plate in the presence of competitor compound (B) and in the absence of competitor compound (B0).
# Rabbits were injected by intra-peritoneal route with the peptide conjugated to KLH emulsified with Freund's complete adjuvant. This operation was repeated 3 times over three months using the same peptide with Freund's incomplete adjuvant. After each injection a sample of rabbit blood was taken. This blood was left to coagulate for 30 minutes and the whole sample was centrifuged for 10 minutes at 2500 rpm in order to recover the serum. Ten days after the last injection, the rabbits were sacrificed and all the blood was recovered. Each serum sample was titrated by ELISA technique in the presence of the synthetic peptide. The antiserum with the best titre was selected for the finalization of the competitive ELISA (Harlow and Lane, 1988a).
# The peptide conjugated to the biotin diluted with the coating buffer is adsorbed on plates avidinated for 2 hours at ambient temperature. After washing, 50 μl of antisera diluted to the optimum titre are added to 50 μl of standard (synthetic peptide diluted in buffer) or to 50 μl of samples to be assayed and are left to incubate overnight at 4° C. After washing, 100 μl of secondary antibodies coupled to the peroxidase directed against the rabbit immunoglobulins are added over one hour at ambient temperature. The wells are washed and 100 μl of substrate (TMB) are added. The reaction is stopped with 100 μl of H2SO4.
# The antiserum selected was tested vis-à-vis different peptides according to the ELISA method described previously in order to verify its specificity (FIG. 4). The peptides tested are: the peptide IIINys of sequence SEQ ID No. 2 (the immunogenic peptide), the peptide of sequence SEQ ID No. 3 (the peptide IIINys with only the first tyrosine nitrosylated), the peptide of sequence SEQ ID No. 4 (the peptide IIINys with only the second tyrosine nitrosylated), the peptide of sequence SEQ ID No. 9 (the peptide IIINys with an additional amino acid on the N-terminal side), the peptide of sequence SEQ ID No. 8 (the peptide IIINys with its tyrosines non nytrosylated), 3-nitrotyrosine (FIG. 2), with the nitrosylated BSA of sequence SEQ ID No. 11.
row,Compound,"competition with the peptide IIINys (SEQ ID No. 2) adsorbed on the plate for the antiserum (B/B0, FIG. 4)"
1,"N[C@@H](Cc1ccc(O)c([N+](=O)[O-])c1)C(=O)O [3-nitrotyrosine, reference compound]",not capable of entering into competition
2,"PQY*DSY*DVKSG (PQYDSYDVKSG; not fully specified (residues 3, 6); printed as PQY*DSY*DVKSG) [SEQ ID No. 9, the peptide IIINys with an additional amino acid on the N-terminal side, reference compound]",not capable of entering into competition
3,"QY*DSYDVKSG [SEQ ID No. 3, the peptide IIINys with only the first tyrosine nitrosylated]",less affinity than for the peptide IIINys
4,"QYDSY*DVKSG [SEQ ID No. 4, the peptide IIINys with only the second tyrosine nitrosylated]",less affinity than for the peptide IIINys
5,"QYDSYDVKSG [SEQ ID No. 8, the peptide IIINys with its tyrosines non nitrosylated]",not capable of entering into competition
